Results: ChEMBL document CHEMBL4732086, “Targeting nuclear protein TDP-43 by cell division cycle kinase 7 inhibitors: A new therapeutic approach for amyotrophic lateral sclerosis” (Eur J Med Chem, 2021)
Active and inactive are the calls of the source. The rule behind the calls is not given here.

Experiments:
[1] = target: Calcium/calmodulin-dependent protein kinase type 1D (Homo sapiens) (UniProt Q8IU85); assay: Inhibition of recombinant full length human His-tagged CAMK1delta expressed in baculovirus expression system using serine/threonine-25 peptide as substrate at 10 uM incubated for 60 mins in presence of ATP by Z'-LYTE assay
[2] = target: Calcium/calmodulin-dependent protein kinase type II subunit alpha (Homo sapiens) (UniProt Q9UQM7); assay: Inhibition of recombinant full length human His-tagged CAMK2alpha expressed in baculovirus expression system using serine/threonine-4 peptide as substrate at 10 uM incubated for 60 mins in presence of ATP by Z'-LYTE assay
[3] = target: Casein kinase I isoform alpha (Homo sapiens) (UniProt P48729); assay: Inhibition of human CSNK1A1 expressed in baculovirus expression system using serine/threonine-11 peptide as substrate at 10 uM incubated for 60 mins in presence of ATP by Z'-LYTE assay
[4] = target: T1, Interleukin-1 receptor-associated kinase 4 (Homo sapiens) (UniProt Q9NWZ3); assay: Inhibition of recombinant human full length His-tagged IRAK4 expressed in baculovirus expression system using serine/threonine-07 peptide as substrate at 10 uM incubated for 60 mins in presence of ATP by Z'-LYTE assay
T1 sequence (whole entry): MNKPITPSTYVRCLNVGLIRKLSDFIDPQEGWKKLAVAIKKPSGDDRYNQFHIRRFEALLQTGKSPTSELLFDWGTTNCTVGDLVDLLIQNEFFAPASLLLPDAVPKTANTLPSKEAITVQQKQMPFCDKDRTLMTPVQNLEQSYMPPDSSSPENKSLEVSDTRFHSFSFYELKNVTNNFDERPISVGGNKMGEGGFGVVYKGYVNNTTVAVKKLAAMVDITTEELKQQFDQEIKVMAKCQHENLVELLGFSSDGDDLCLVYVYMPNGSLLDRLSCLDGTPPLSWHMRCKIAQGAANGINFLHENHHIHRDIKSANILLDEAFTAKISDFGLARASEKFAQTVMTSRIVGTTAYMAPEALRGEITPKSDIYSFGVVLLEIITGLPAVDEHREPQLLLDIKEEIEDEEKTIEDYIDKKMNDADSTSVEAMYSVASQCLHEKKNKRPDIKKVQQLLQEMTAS

[5] = target: Serine/threonine-protein kinase PAK 1 (Homo sapiens) (UniProt Q13153); assay: Inhibition of recombinant human full length GST-tagged PAK1 expressed in baculovirus expression system using serine/threonine-19 peptide as substrate at 10 uM by Z'-LYTE assay; details: time 60.0 min
[6] = target: Casein kinase II subunit alpha (Homo sapiens) (UniProt P68400); assay: Inhibition of recombinant human full length His-tagged CSNK2A1 expressed in baculovirus expression system using serine/threonine-11 peptide as substrate at 10 uM incubated for 60 mins in presence of ATP by Z'-LYTE assay
[7] = target: Maternal embryonic leucine zipper kinase (Homo sapiens) (UniProt Q14680); assay: Inhibition of recombinant human full length GST-tagged MELK expressed in baculovirus expression system using serine/threonine-21 peptide as substrate at 10 uM by Z'-LYTE assay; details: time 60.0 min
[8] = target: Cell division cycle 7-related protein kinase (Homo sapiens) (UniProt O00311); assay: Inhibition of human CDC7 in human SH-SY5Y cells assessed as prevention of ethacrynic acid-induced cell death preincubated for 1 hr followed by incubation with ethacrynic acid for 24 hrs measured at 10 uM by MTT assay relative to control; type: cell-based
[9] = target: RAC-beta serine/threonine-protein kinase (Homo sapiens) (UniProt P31751); assay: Inhibition of recombinant full length human His-tagged AKT2 using serine/threonine-06 peptide as substrate at 10 uM incubated for 60 mins in presence of ATP by Z'-LYTE assay
[10] = target: T2, Mitogen-activated protein kinase 12 (Homo sapiens) (UniProt P53778); assay: Inhibition of recombinant human full length His-tagged MAPK12 expressed in baculovirus expression system using serine/threonine-03 peptide as substrate at 10 uM incubated for 60 mins in presence of ATP by Z'-LYTE assay
T2 sequence (whole entry): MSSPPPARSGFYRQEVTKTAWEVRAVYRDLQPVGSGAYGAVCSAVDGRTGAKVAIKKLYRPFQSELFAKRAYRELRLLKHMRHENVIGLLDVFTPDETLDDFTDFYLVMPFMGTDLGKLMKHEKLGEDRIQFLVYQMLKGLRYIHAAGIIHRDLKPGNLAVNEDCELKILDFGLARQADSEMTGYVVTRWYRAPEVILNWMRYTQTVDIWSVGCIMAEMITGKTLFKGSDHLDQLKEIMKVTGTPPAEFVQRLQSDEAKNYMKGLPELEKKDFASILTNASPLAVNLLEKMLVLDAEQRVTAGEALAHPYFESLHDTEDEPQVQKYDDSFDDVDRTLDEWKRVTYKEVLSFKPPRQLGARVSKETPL

[11] = target: Tyrosine-protein kinase Lck (Homo sapiens) (UniProt P06239); assay: Inhibition of recombinant human His-tagged LCK expressed in baculovirus expression system using Tyr-02 peptide as substrate at 10 uM incubated for 60 mins in presence of ATP by Z'-LYTE assay
[12] = target: Dual specificity tyrosine-phosphorylation-regulated kinase 1B (Homo sapiens) (UniProt Q9Y463); assay: Inhibition of recombinant human full length GST-tagged DYRK1B expressed in baculovirus expression system using serine/threonine-18 peptide as substrate at 10 uM incubated for 60 mins in presence of ATP by Z'-LYTE assay
[13] = target: Dual specificity tyrosine-phosphorylation-regulated kinase 1A (Homo sapiens) (UniProt Q13627); assay: Inhibition of recombinant human full length GST-tagged DYRK1A expressed in baculovirus expression system using serine/threonine-18 peptide as substrate at 10 uM incubated for 60 mins in presence of ATP by Z'-LYTE assay
[14] = target: Cyclin-dependent kinase 5/CDK5 activator 1 (Homo sapiens) (UniProt Q00535+Q15078); assay: Inhibition of recombinant full length human GST/His-tagged CDK5/p25 expressed in baculovirus expression system using serine/threonine-12 peptide as substrate at 10 uM incubated for 60 mins in presence of ATP by Z'-LYTE assay
[15] = target: T3, CDC7/DBF4 (Cell division cycle 7-related protein kinase/Activator of S phase kinase) (Homo sapiens) (UniProt Q9UBU7+O00311); assay: Competitive inhibition of recombinant human full length N-terminal GST tagged CDC7/Dbf4 expressed in baculovirus infected Sf9 insect cells assessed as inhibition of substrate phosphorylation using PDKtide as substrate at 5 to 10 uM measured after 60 mins by ATP assay; details: dose 5-10 µM
[16] = target: Glycogen synthase kinase-3 beta (Homo sapiens) (UniProt P49841); assay: Inhibition of recombinant human full length His-tagged GSK3B expressed in baculovirus expression system using serine/threonine-09 peptide as substrate at 10 uM incubated for 60 mins in presence of ATP by Z'-LYTE assay
[17] = target: T3, CDC7/DBF4 (Cell division cycle 7-related protein kinase/Activator of S phase kinase) (Homo sapiens); assay: Inhibition of recombinant human GST tagged CDC7/Dbf4 expressed in baculovirus expression system at 10 uM by Z'-LYTE assay

SMILES	inhibition [1]	inhibition [2]	inhibition [3]	inhibition [4]	inhibition [5]	inhibition [6]	inhibition [7]	inhibition [8]	inhibition [9]	inhibition [10]	inhibition [11]	inhibition [12]	inhibition [13]	inhibition [14]	inhibition [15]	inhibition [16]	inhibition [17]
Clc1cccc(CSc2ncnc3[nH]cnc23)c1	inactive	inactive	inactive	inactive	inactive	inactive	inactive	Active	inactive	inactive	inactive	inactive	inactive	inactive	Active	inactive	Active
c1ccc(CSc2ncnc3[nH]cnc23)cc1	inactive	inactive	inactive	inactive	inactive	inactive	inactive	Active	inactive	inactive	inactive	inactive	inactive	inactive	Active	inactive	Active
Brc1ccccc1CSc1ncnc2[nH]cnc12	inactive	inactive	inactive	inactive	inactive	inactive	inactive	Active	inactive	inactive	inactive	inactive	inactive	inactive	Active	inactive	Active
